Key:
[1] = test system: COS cells transfected with both Hsp70 and HHD expression vectors; experiment: Peptide processing assay on COS-transfected cells, TNF-α secretion by murine CTL; type: cell-based, simian
Source text: After contact of murine CTL lines with transfected COS cell, CTL recognition of COS cells is expressed as CTL secretion of TNF-α dosed in supernatant (X Axis, TNF-α ranges from 0 to 500 pg/ml). The graphs represent TNF-α dosage by cytotoxic cell lines, respectively mCTL380, mCTL391 mCTL393 and mCTL134, after contact with COS cells. In each graph, upper to lower bars represent the different cells in contact with CTL, respectively: negative control (no COS cell), COS cells, COS cells transfected with Hsp70 expression plasmid, COS cells transfected with HHD expression plasmid, positive control (COS cells transfected with HHD and pulsed with the respective peptide), COS cells transfected with HHD and with Hsp70 expression plasmids.
Peptide Processing Assay on COS-Transfected Cells. 2.2×10^4 simian COS cells were plated in flat-bottom 96 well plates in DMEM 10% FCS, in quadruplicates for each condition. 18 hours later, the medium is discarded, and 100 ng of each DNA plasmid, encoding for Hsp70 and HLA class I molecules, is put in contact with COS cells in DMEM 10% Nuserum […] Chloroquine 10 mg/mL DEAE Dextran. After 4 hours of incubation at 37° C., transfection medium is discarded, and 50 μL PBS 10% DMSO is added for 2 minutes for integration of plasmids. It is then discarded and transfected COS cells are placed in DMEM 10% FCS for 40 hours. Transfected COS cells are then used with 5×10^4 murine CTL in a TNF-α secretion assay.
TNF-α Secretion Assay. Transfected COS cells on day 4 or 10^5 target tumor cells were plated in 50 μL RPMI 10% FCS and when necessary incubated with 10 μM peptide for 1 hour. In blocking experiments, anti-HLA class I antibody w6/32 or an irrelevant antibody were incubated with target cells for 1 h30. 5×10^4 T cells were then added in 50 μL RPMI 10% FCS and incubated for 6 hours. Each condition was tested in quadruplicates. 50 μL of the supernatant was collected. Standard dilutions were prepared in 50 μL with final doses of TNF-α (kindly provided by I. Apfler, Bender Wien, Austria) ranging from 10^4 to 0.08 pg/mL. On both the supernatants and the standards were added 50 μL of 3×10^4 TNF-α sensitive WEHI-164c13 cells. They were incubated for 16 hours at 37° C. (23). Inhibition of cell proliferation was evaluated by the MTT colorimetric method. Briefly, 50 μL of MTT at 2.5 mg/mL (Sigma-Aldrich) was added and incubated for 4 hours at 37° C. Cells were then lyzed with 100 μL of a pH4.7 33% N,N-dimethyl formamide (Sigma-Aldrich) 20% SDS solution in water. Two hours after cells lysis, OD was measured at 550 nm on a Dynatech MR5000 spectrophotometer. TNF-α quantitation was calculated by linear interpolation with the standard dilutions.

human CD8+ cells = experiment: Generation of CTL from human PBMC with peptide- or polyepitope-pulsed dendritic cells, intracellular IFN-γ staining; type: cell-based; details: CD8+ cells stimulated with peptide-loaded dendritic cells
Procedure: The three graphs entitled hCTL380, hCTL391 and hCTL393 represent respectively the testing of p380, p391 and p393-specific human CTLs. P391 and p393 specific CTLs were tested towards EBV-B cells, whereas p380 specific CTLs were tested towards T2 cells. The number of IFN-γ producing CD8+ cells for 10^5 CD8+ cells upon activation, indicated on the X-axis, was measured, as assessed by staining cells for CD8 and intracellular IFN-γ.
Polyepitope induced human CTL were tested for their capacity to respond to T2 cells loaded with p380, p391 or p393 or the irrelevant HIVpol589 peptides in intracellular IFN-γ staining. The X axis represents the number of IFNγ-producing CTL/10^5 CD8+ cells. On the Y axis, upper to lower bars represent the results obtained when cells were loaded respectively with irrelevant HIV pol589 peptides, or with p380, p391 or p393 peptides.
Generation of CTL from Human Peripheral Blood Mononuclear Cells (PBMC). Fresh PBMC collected from healthy donnors under informed consent were serologically typed for the studied HLA-class I molecule, and purified using standard Ficoll-Paque (Amersham Pharmacia Biotech AB). Dendritic cells (DC) were prepared by cultivating plastic adherent PBMC in the presence of 500 U/mL GM-CSF (R&D Systems Inc. MN) and 500 U/mL IL-4 (R&D Systems Inc. MN) for 7 days such as described in Keogh et al. (30).
DC were then maturated for 2 days with 2 μg/mL anti-CD40 antibody and 100 ng/mL Poly I:C (Sigma-Aldrich). […] Autologous CD8+ purified T-cells (CD8 MicroBeads, Miltneyi Biotec Inc. CA) were stimulated weekly with DC pulsed for two hours with peptide (10 μM) and irradiated at 35Gy at a T:DC ratio of 10:1 in culture medium (CM; RPMI 1640 supplemented with 10% human AB serum, […] L-glutamine and gentamycin). 1×10^3 U/mL IL-6 and SU/mL IL-12 (R&D Systems Inc. MN) were added during the first week of culture. 20 U/mL clinical grade IL-2 (Proleukin, Chiron Corp.) and 10 ng/mL IL-7 (R&D Systems Inc. MN) were added during the next two weeks of culture. 7 days after the last stimulation with DC, peptide specific IFN-γ secreting CD8+ T cells were magnetically sorted following encounter of the peptide presented by HLA-A*0201+ B-EBV cells (IFN-γ Secretion Assay, Miltenyi Biotec Inc. CA). The characterization of peptide-specific T cells was tested 7 days after the purification step.
Intracellular IFN-g Staining. 5×10^4 T cells were incubated with 10^5 stimulating peptide loaded EBV-B cells or with 10^5 tumor cells in the presence of 20 μg/ml brefeldin-A (Sigma, Oakville, Canada). Six hours later, they were washed, stained with r-phycoerythrin-conjugated anti-CD8 antibody (Caltag Laboratories, Burlingame, Calif.) in PBS for 25 min at 4° C., washed and fixed with 4% PFA. Then, cells were permeabilized with PBS 0.5% BSA 0.2% saponin (Sigma, Oakville, Canada), and stained with allophycocyanin-conjugated anti-IFNg mAb (PharMingen, Mississauga, Canada) for 25 min at 4° C. Cells were analyzed on FACSCalibur (Becton Dickinson, Mountain View, Calif.).

Sequence | processing of the peptide: recognition of Hsp70 + HHD transfected COS cells by the specific murine CTL line [1] | induction of specific human CTL (human CD8+ cells)
LLLLDVAPL [HSP 391] | are epitopes | capable of stimulating specific human CTL
LMGDKSENV [HSP 380] | are epitopes | capable of stimulating specific human CTL
YLGYPVTNAV [HSP 134(10)] | are epitopes | capable of stimulating specific human CTL

From patent publication US20050267020A1, “Polypeptides derived from inducible hsp70 and pharmaceutical compositions containing the same” (priority 2001, published 2005)
